Measured values published in patent publication US20230417767A1, “COMPOSITIONS AND METHODS FOR THE DIAGNOSIS AND TREATMENT OF AGE-RELATED MACULAR DEGENERATION” (Georgetown University, priority 2016, published 2023).

What was measured:
AMD RPE = experiment: Cell viability of AMD RPE under oxidative stress; type: cell-based, human; details: FIG. 16E-G
Method: RPE were cultured at 80-90% confluency in 96-well plates, at 37° C. with 5% O2 and 5% CO2. Oxidative stress was induced with different concentrations of H2O2 ranging from 0-10 mM for 24 or 48 hrs, followed by cell viability measurements. Cell viability was measured following a 30 min incubation with the PestoBlue Reagent (Life Technologies) of RPE monolayers cultured on 96-well plates, 6 wells used for each sample. Fluorescence measurements were performed using an Ultra384 plate reader with 535 nm excitation and 612 nm emission wavelengths.

[1] = tested on: Acyl-CoA Dehydrogenase (ACADM); experiment: Acyl-CoA Dehydrogenase (ACADM) expression in RPE; type: cell-based, human; details: FIG. 16A-C
Description: (§1) FIGS. 1-3 show various representations of an in vitro disease model of AMD. A total of 10 eyes from 5 organ donors clinically diagnosed with dry AMD and 10 eyes from 5 clinically normal donors were purchased from Lions Medical Eye Bank. RPE were isolated according to established protocols (Maminishkis et al., 2006) and cultured in Epithelial Cell Media (EpiCM, ScienCell) under controlled oxygen (5%) and CO2 (5%) conditions. Studies have shown that low (physiological) oxygen concentration promotes RPE growth (Knorr et al., 1993) and better protects from ROS-induced damage in vitro. RPE were then purified with Magnetic-Activated Cell Sorting (MACS) by positive selection for epithelial cells using anti-BEST1 antibody (Abcam) and anti-E-cadherin (Miltenyi Biotech); and by negative selection using a fibroblast-specific antibody (Miltenyi Biotech) to remove fibroblasts. The purity of the sorted cells was confirmed by immunostaining with anti-ZO-1 and anti-BEST1, and Real-Time PCR for RPE specific genes. The RPE cells were grown in Epithelial Cell Media (EpiCM, ScienCell) at 37° C., with 5% O2 and 5% CO2. […] Skin fibroblasts from a dry AMD patient were used to generate iPSC-RPE. Genotyping of the donors and the patient is represented in FIG. 3.
(§2) Quantitative Real-Time Polymerase Chain Reaction Analyses. […] Quantitative PCR was performed with the QuantiTect SYBR Green PCR Kit (Qiagen). […]

APOJ = APOJ expression in retina of mice fed high fat diet containing compound; type: in vivo; details: genotype (WT or HET) not stated; telmisartan 0.001% in high fat diet, 11 weeks; FIG. 23A
Method: (§3) Quantitative Real-Time Polymerase Chain Reaction Analyses. Total RNA was extracted with the RNeasy kit (Qiagen), treated with RNase-free DNase I (Qiagen), and reverse transcribed with oligo-dT using the SuperScript III cDNA synthesis kit (Invitrogen). Quantitative PCR was performed with the QuantiTect SYBR Green PCR Kit (Qiagen). Specific primers for each gene were designed with the PrimerQuest software (Integrated DNA Technologies), and the cDNA sequences of each gene (GenBank) were used to produce 100-250 bp PCR amplicons that span one or more exon/intron boundaries.
(§4) The HET mice described in Example 2 were administered various compounds to determine the effects of these compounds on the development of AMD. In the High Fat Diet (HFD) experiments, 5 wild type (WT) mice, 5 PGC-1α+/−mice, 5 PGC-1α−/−mice at 2 months old with C57BL/6 background were fed with regular diet (RD) or high fat diet for 16 weeks. […]
(§5) To test the effects of telmisartan, fenofibrate and UPF 1069 on mice, 5 wild type (WT) mice, 5 PGC-1α+/−mice, 5 PGC-1α−/−mice at 2 months old were administrated with RD, HFD, or HFD (Testdiet, 5015) containing one of the three compounds. […] 11 weeks after beginning of administration of the compounds, the mice were sacrificed, the body weight was measured, the eyes were enucleated, with the retinas being extracted and processed for RNA isolation. […]

PGC-1α [2] = experiment: PGC-1α gene expression in mice fed high fat diet containing compound; type: in vivo; details: compound in high fat diet (telmisartan, UPF 0.001%; fenofibrate 0.1%), 11 weeks, FIG. 24
Method: as §3, §4, §5

PGC-1α [3] = experiment: PGC-1α gene expression in retinal pigment epithelium (RPE); type: cell-based, human; details: FIG. 16A-C
Description: as §1, §2

APP = APP expression in retina of mice fed high fat diet containing compound; type: in vivo; details: compound in high fat diet (telmisartan, UPF 0.001%; fenofibrate 0.1%), 11 weeks, FIG. 21
Method: as §3, §4, §5

APOE = APOE expression in retina of mice fed high fat diet containing compound; type: in vivo; details: compound in high fat diet (telmisartan, UPF 0.001%; fenofibrate 0.1%), 11 weeks, FIG. 22
Method: as §3, §4, §5

APOB = APOB expression in retina of mice fed high fat diet containing compound; type: in vivo; details: PGC-1α+/− (HET) mice; compound in high fat diet (telmisartan, UPF 0.001%; fenofibrate 0.1%), 11 weeks; FIG. 20
Method: as §3, §4, §5

AMPK = AMPK phosphorylation in RPE; type: cell-based, human; details: FIG. 16D
Description: as §1, with “Genotyping of the donors and the patient is represented in FIG. 3.” left out
Immunoblot analysis. […] Protein concentrations were measured by Bradford assay (Bio-Rad). Protein samples were analyzed using the NuPAGE electrophoresis and XCell Western blot system (Invitrogen). […]

Row | SMILES | cell viability under oxidative stress (AMD RPE) | Acyl-CoA Dehydrogenase (ACADM) expression ([1]; AMD RPE) | Acyl-CoA Dehydrogenase (ACADM) expression ([1]; normal (control) RPE) | APOJ levels (APOJ) | PGC-1α expression (PGC-1α [2]; PGC-1α+/− (HET) mice) | PGC-1α expression (PGC-1α [2]; WT mice) | PGC-1α expression (PGC-1α [3]; AMD RPE) | PGC-1α expression (PGC-1α [3]; normal (control) RPE) | APP levels in the retina (APP; PGC-1α+/− (HET) mice) | APP levels in the retina (APP; WT mice) | APOE levels in the retina (APOE; PGC-1α+/− (HET) mice) | APOE levels in the retina (APOE; WT mice) | APOB levels in the retina (APOB) | AMPK phosphorylation (AMPK; AMD RPE) | AMPK phosphorylation (AMPK; normal (control) RPE)
1 | O=C(O)c1cc(C(=O)O)c2c(n1)C(=O)C(=O)c1cc(C(=O)O)[nH]c1-2 [PQQ, pyrroloquinoline quinone] | increasing | – | – | – | – | – | – | – | – | – | – | – | – | – | –
2 | CCCc1nc2c(C)cc(-c3nc4ccccc4n3C)cc2n1Cc1ccc(-c2ccccc2C(=O)O)cc1 [telmisartan] | increasing | increasing | increasing | did not reduce | significantly Increase | significantly increased | increasing | increasing | unable to decrease | significant increase | significantly reduce | significantly reduce | significantly reduce | inducing | inducing
